The test system of assay [1] is Bacillus spores. The procedure: Other embodiments of the treatment formula were also tested using varying amounts of hydrogen peroxide.
The subject of another assay is Bacillus subtilis spores. As to conditions: 20 mg/I hydrogen peroxide for 60 minutes; cited from earlier work.
The test system of assay [2] is Bacillus subtilis subsp. globigii. As to conditions: cited from earlier work.
Assay [3] relates to Bacillus spores. As to conditions: cited from earlier work.

Consider one molecule from US20220112445A1 (priority 2019, published 2022).

Where two headings read alike, the source gives them in different places.

Take `OO` [H2O2, hydrogen peroxide]: the “Spore Survival 5 Minutes” value with Bacillus spores [1] (0.285 Percent H2O2, 5 minutes after mixing) is reported as “Excellent”; in the assay on Bacillus spores [1] (0.71 Percent H2O2, 5 minutes after mixing), “Excellent”; in the assay on Bacillus spores [1] (1.43 Percent H2O2, 5 minutes after mixing), 0. For the same molecule, the “Spore Survival 2 Hours” value in the assay with Bacillus spores [1] (0.285 Percent H2O2, 2 hours after mixing) is given as “Excellent”; in the assay on Bacillus spores [1] (0.71 Percent H2O2, 2 hours after mixing), “Good”; with Bacillus spores [1] (1.43 Percent H2O2, 2 hours after mixing), 0. Besides, the “Spore Survival 4 Hours” value with Bacillus spores [1] (0.285 Percent H2O2, 4 hours after mixing) is reported as “Excellent”; in the assay with Bacillus spores [1] (0.71 Percent H2O2, 4 hours after mixing), “Fair”; in the assay with Bacillus spores [1] (1.43 Percent H2O2, 4 hours after mixing) it was 0. Besides, the “Spore Survival 6 Hours” value with Bacillus spores [1] (0.285 Percent H2O2, 6 hours after mixing) is listed as “Excellent”; in the assay on Bacillus spores [1] (0.71 Percent H2O2, 6 hours after mixing) it was “Fair”; with Bacillus spores [1] (1.43 Percent H2O2, 6 hours after mixing), 0. For the same molecule, the “Spore Survival 24 Hours” value in the assay with Bacillus spores [1] (0.285 Percent H2O2, 24 hours after mixing) is “Excellent”; in the assay on Bacillus spores [1] (0.71 Percent H2O2, 24 hours after mixing), “Poor”; in the assay with Bacillus spores [1] (1.43 Percent H2O2, 24 hours after mixing), 0. Also, in the assay with Bacillus spores [1] (1.43% hydrogen peroxide level), the spore viability result is given as “not viable”. Moreover, the “kill of Bacillus subtilis spores” value with Bacillus subtilis spores is “no kill”. For the same molecule, the “effectiveness against Bacillus subtilis subsp. globigii” value in assay [2] (10% hydrogen peroxide at room temperature) is “ineffective”. In assay [2] (high temperature (80° C.)), the “concentration required for the destruction of these spores” value is reported as 35%. For the same molecule, the concentration exponent entry in the assay on Bacillus spores [3] (25° C., levels of between 10 and 20% (w/v)) is on record as “about 1.5”. The “bactericidal / sporicidal activity” value with Bacillus spores [3] (concentration of 6% (w/vol)) is recorded as “bactericidal, but only slowly sporicidal”.
